The values that follow are results of earlier work, collected in patent US20130096948A1, “METHODS FOR DIAGNOSIS, PROGNOSIS AND TREATMENT” (Nodality, Inc., priority 2009, published 2013).

Like-named read-outs stand apart in the source and are kept apart here.

Take `Nc1ccn([C@@H]2O[C@H](CO)[C@@H](O)[C@@H]2O)c(=O)n1` [Cytarabine]: the peak plasma concentration reads like this: (high dose Cytarabine, 3 g/m2) 2 µM; (standard dose of Cytarabine, 100 mg/m2) “approximately 40 nM”.
As for `COc1cccc2c1C(=O)c1c(O)c3c(c(O)c1C2=O)C[C@@](O)(C(C)=O)C[C@@H]3O[C@H]1C[C@H](N)[C@H](O)[C@H](C)O1` [Daunorubicin], the peak plasma concentration was 50 ng/mL (Daunorubicin at 25 mg/m2) and 200 ng/mL (Daunorubicin at 50 mg/m2).
